Source: the supplement of paper PMC10307832

How the values were obtained:
Test in all cases: relative viability (nuclei count vs DMSO), 5 days (fraction); higher = more cells survive
Bortezomib + Navitoclax = compound: CC(C)C[C@H](NC(=O)[C@H](Cc1ccccc1)NC(=O)c1cnccn1)B(O)O [Bortezomib] + CC1(C)CCC(c2ccc(Cl)cc2)=C(CN2CCN(c3ccc(C(=O)NS(=O)(=O)c4ccc(N[C@H](CCN5CCOCC5)CSc5ccccc5)c(S(=O)(=O)C(F)(F)F)c4)cc3)CC2)C1 [Navitoclax] (partner 0.5 µM)
How it was run: (§1)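 Medians of duplicate plates are given as relative viability. That measure is the nuclei count in treated wells divided by the count in vehicle wells. Counts were taken on 4× images of lung cancer cell lines in 1536-well plates, 5 days after pin-tool dosing the day after seeding with one drug alone or a fixed anchor-drug dose plus five library-drug doses (not always all listed) in √10 steps.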

Bortezomib + Decitabine = compound: CC(C)C[C@H](NC(=O)[C@H](Cc1ccccc1)NC(=O)c1cnccn1)B(O)O [Bortezomib] + Nc1ncn([C@H]2C[C@H](O)[C@@H](CO)O2)c(=O)n1 [Decitabine] (partner 2 µM)
How it was run: as §1

[1] = compound: CC1=CC(=NN1)NC2=CC(=NC(=N2)/C=C/C3=CC=CC=C3)N4CCN(CC4)C + Cc1nc(Nc2ncc(C(=O)Nc3c(C)cccc3Cl)s2)cc(N2CCN(CCO)CC2)n1 [Dasatinib] (partner 0.075 µM)
How it was run: as §1

Obatoclax + Foretinib = compound: COC1=CC(c2cc3ccccc3[nH]2)=N/C1=C\c1[nH]c(C)cc1C [Obatoclax] + COc1cc2c(Oc3ccc(NC(=O)C4(C(=O)Nc5ccc(F)cc5)CC4)cc3F)ccnc2cc1OCCCN1CCOCC1 [Foretinib] (partner 0.25 µM)
How it was run: as §1

Cell Line	relative viability (Bortezomib + Navitoclax; first compound 0.0002 µM)	relative viability (Bortezomib + Navitoclax; first compound 0.000632 µM)	relative viability (Bortezomib + Navitoclax; first compound 0.002 µM)	relative viability (Bortezomib + Navitoclax; first compound 0.006325 µM)	relative viability (Bortezomib + Navitoclax; first compound 0.02 µM)	relative viability (Bortezomib + Decitabine; first compound 0.0002 µM)	relative viability (Bortezomib + Decitabine; first compound 0.000632 µM)	relative viability (Bortezomib + Decitabine; first compound 0.002 µM)	relative viability (Bortezomib + Decitabine; first compound 0.006325 µM)	relative viability (Bortezomib + Decitabine; first compound 0.02 µM)	relative viability ([1]; first compound 0.08 µM)	relative viability ([1]; first compound 0.253 µM)	relative viability ([1]; first compound 0.8 µM)	relative viability ([1]; first compound 2.53 µM)	relative viability ([1]; first compound 8 µM)	relative viability (Obatoclax + Foretinib; first compound 0.01 µM)	relative viability (Obatoclax + Foretinib; first compound 0.03162 µM)	relative viability (Obatoclax + Foretinib; first compound 0.1 µM)	relative viability (Obatoclax + Foretinib; first compound 0.3162 µM)	relative viability (Obatoclax + Foretinib; first compound 1 µM)
NCI-H1792	0.622	0.582	0.638	0.633	0.582	0.473	0.581	0.664	0.286	0.0625	0.749	0.848	0.733	0.525	0.151					
Calu-6	0.749	0.882	0.69	0.0841	0.0734											0.901	0.739	0.927	0.919	0.321
CAL-12T	1.27	1.14	1.26	0.19	0.123						0.52	0.38	0.342	0.0924	0.0804	1.11	1.16	1.09	0.343	0.134
LCLC-103H						0.66	0.727	0.68	0.274	0.221	0.481	0.483	0.492	0.459	0.237	0.792	0.698	0.778	0.668	0.8
NCI-H2342						0.818	0.795	0.694	0.725	0.436	0.314	0.298	0.322	0.249	0.218	1.05	0.947	1.09	1.04	1.03
NCI-H1299	0.981	0.988	1.01	0.397	0.142											1.08	1.12	1.08	1.08	1.05
NCI-H1703	1.21	1.01	0.188	0.139	0.085											0.379	0.309	0.301	0.382	0.303
NCI-H522						0.777	0.621	0.575	0.432	0.386	0.94	0.795	0.662	0.482	0.388					
NCI-H1623											0.469	0.559	0.614	0.494	0.543	0.95	0.81	0.984	0.839	0.896
ABC-1						1.09	1	0.389	0.284	0.287	0.496	0.692	0.522	0.207	0.145	1.11	1.15	1.23	1.06	0.975
IA-LM	1.07	0.865	0.994	0.0167	0.0073											1.17	1.18	1.03	0.624	0.0739
NCI-H1563											0.462	0.463	0.497	0.432	0.288	0.903	0.91	1.04	0.824	0.806
NCI-H358						0.204	0.207	0.191	0.0949	0.0871	0.171	0.23	0.173	0.08	0.0626	0.664	0.847	0.668	0.415	0.311
NCI-H1648						0.516	0.444	0.366	0.453	0.292										
